Values quoted from earlier work, collected in paper PMC10952301, “Solid‐Phase Synthesis and Biological Evaluation of Peptides ADP‐Ribosylated at Histidine” (Angewandte Chemie (International Ed. in English), 2023).

Details: quoted without reference to compare leaving group capacity

c1c[nH]nn1 [1,2,3‐triazole]
pKa: 9.4
